This note sets out measurements from patent US10550105B2 (Ribon Therapeutics Inc., priority 2018, dated 2020).

This assay concerns the target PARP7 (Homo sapiens (Human), UniProt Q7Z3E1). In words: Enzymatic assay for inhibition of PARP7: TR-FRET displacement of biotinylated Probe A from the TIPARP active site. It counts as binding. Conditions: Table A-1. The essentials: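 Read-out: 665/615 nm emission ratio (ex 320 nm, 90 μs delay) indexing bound TIPARP–Probe A. Final incubation 30 min, 25° C; compounds in dose response. Curve fit of % inhibition vs concentration; Hill slope floating or fixed at 1 (3-parameter).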

Chain of PARP7 (Q7Z3E1 whole entry): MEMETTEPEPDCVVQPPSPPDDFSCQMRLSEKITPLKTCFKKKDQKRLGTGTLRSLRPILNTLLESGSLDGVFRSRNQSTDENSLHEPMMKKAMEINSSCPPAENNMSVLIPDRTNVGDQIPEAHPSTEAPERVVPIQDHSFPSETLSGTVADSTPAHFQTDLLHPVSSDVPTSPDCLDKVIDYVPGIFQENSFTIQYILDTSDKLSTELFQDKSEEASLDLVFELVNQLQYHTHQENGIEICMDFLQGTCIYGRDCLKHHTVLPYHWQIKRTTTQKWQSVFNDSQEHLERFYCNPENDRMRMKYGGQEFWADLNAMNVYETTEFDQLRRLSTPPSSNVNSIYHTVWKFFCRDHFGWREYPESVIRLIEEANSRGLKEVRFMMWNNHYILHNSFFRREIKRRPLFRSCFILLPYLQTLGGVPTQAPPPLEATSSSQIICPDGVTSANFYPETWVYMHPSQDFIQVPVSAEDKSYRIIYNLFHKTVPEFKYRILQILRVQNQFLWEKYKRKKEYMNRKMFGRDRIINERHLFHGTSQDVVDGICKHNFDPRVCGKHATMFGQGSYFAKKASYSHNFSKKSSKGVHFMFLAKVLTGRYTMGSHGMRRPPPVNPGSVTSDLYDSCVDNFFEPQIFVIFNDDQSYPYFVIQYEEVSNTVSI

Regarding `O=C(CCOC[C@H](CCO)Nc1cn[nH]c(=O)c1C(F)(F)F)N1CCN(c2ncc(C(F)(F)F)cn2)CC1` [Example 643, (S)-5-((4-Hydroxy-1-(3-oxo-3-(4-(5-(trifluoromethyl)pyrimidin-2-yl)piperazin-1-yl)propoxy)butan-2-yl)amino)-4-(trifluoromethyl)pyridazin-3(2H)-one], the IC50 was under 0.1 µM.

In the case of `C[C@@H](COCCC(=O)N1CCN(c2cnc(Cl)cn2)CC1)Nc1cn[nH]c(=O)c1C(F)(F)F` [Example 644, (S)-5-((1-(3-(4-(5-Chloropyrazin-2-yl)piperazin-1-yl)-3-oxopropoxy)propan-2-yl)amino)-4-(trifluoromethyl)pyridazin-3(2H)-one], the IC50 is under 0.1 µM.

With `C[C@@H](CN(C)CCC(=O)N1CCN(c2ccc(C#N)cn2)CC1)Oc1cn[nH]c(=O)c1C(F)(F)F` [Example 645, (S)-6-(4-(3-(Methyl(2-((6-oxo-5-(trifluoromethyl)-1,6-dihydropyridazin-4-yl)oxy)propyl)amino)propanoyl)piperazin-1-yl)nicotinonitrile], the 50% inhibitory concentration (IC50) is under 0.1 µM.

Take `C[C@@H](COCCC(=O)N1CC=C(c2ccc(C#N)cn2)CC1)Oc1cn[nH]c(=O)c1C(F)(F)F` [Example 646, (S)-1′-(3-(2-((6-Oxo-5-(trifluoromethyl)-1,6-dihydropyridazin-4-yl)oxy)propoxy)propanoyl)-1′,2′,3′,6′-tetrahydro-[2,4′-bipyridine]-5-carbonitrile]: the concentration for half-maximal inhibition (IC50) was under 0.1 µM.

The compound `O=C(CCOC[C@H](Cc1ccncc1)Nc1cn[nH]c(=O)c1C(F)(F)F)N1CCN(c2ncc(C(F)(F)F)cn2)CC1` [Example 647, (S)-5-((1-(3-Oxo-3-(4-(5-(trifluoromethyl)pyrimidin-2-yl)piperazin-1-yl)propoxy)-3-(pyridin-4-yl)propan-2-yl)amino)-4-(trifluoromethyl)pyridazin-3(2H)-one] returned a half-inhibitory concentration (IC50) of under 0.1 µM.

Take `O=C(CCOC[C@H](CC1CCNCC1)Nc1cn[nH]c(=O)c1C(F)(F)F)N1CCN(c2ncc(C(F)(F)F)cn2)CC1` [Example 648, (S)-5-((1-(3-Oxo-3-(4-(5-(trifluoromethyl)pyrimidin-2-yl)piperazin-1-yl)propoxy)-3-(piperidin-4-yl)propan-2-yl)amino)-4-(trifluoromethyl)pyridazin-3(2H)-one]: the half-inhibitory concentration (IC50) was at least 1 µM.

Compound `O=C(CCOC[C@@H](CC1CCNCC1)Nc1cn[nH]c(=O)c1C(F)(F)F)N1CCN(c2ncc(C(F)(F)F)cn2)CC1` [Example 649, (R)-5-((1-(3-Oxo-3-(4-(5-(trifluoromethyl)pyrimidin-2-yl)piperazin-1-yl)propoxy)-3-(piperidin-4-yl)propan-2-yl)amino)-4-(trifluoromethyl)pyridazin-3(2H)-one] displayed a half-maximal inhibitory concentration (IC50) of under 0.1 µM.

The compound `C[C@@H](COCCC(=O)N1CCN(c2ccc(C#N)cn2)CC1)Oc1cn[nH]c(=O)c1Br` [Example 650, (S)-6-(4-(3-(2-((5-Bromo-6-oxo-1,6-dihydropyridazin-4-yl)oxy)propoxy)propanoyl)piperazin-1-yl)nicotinonitrile] gave a half-maximal inhibitory concentration (IC50) of under 0.1 µM.

The compound `COC[C@@H](COCCC(=O)N1CCN(c2ncc(C(F)(F)F)cn2)CC1)Nc1cn[nH]c(=O)c1Cl` [Example 651, (S)-4-Chloro-5-((1-methoxy-3-(3-oxo-3-(4-(5-(trifluoromethyl)pyrimidin-2-yl)piperazin-1-yl)propoxy)propan-2-yl)amino)pyridazin-3(2H)-one] displayed an IC50 of under 0.1 µM.

The compound `C[C@@H](COCCC(=O)N1CC=C(c2ncc(C(F)(F)F)cn2)CC1)Nc1cn[nH]c(=O)c1C(F)(F)F` [Example 652, (S)-5-((1-(3-Oxo-3-(4-(5-(trifluoromethyl)pyrimidin-2-yl)-3,6-dihydropyridin-1(2H)-yl)propoxy)propan-2-yl)amino)-4-(trifluoromethyl)pyridazin-3(2H)-one] registered an IC50 of under 0.1 µM.

Take `O=C(CCOC[C@@H](Nc1cn[nH]c(=O)c1C(F)(F)F)C1CCNCC1)N1CCN(c2ncc(C(F)(F)F)cn2)CC1` [Example 653, (S)-5-((2-(3-Oxo-3-(4-(5-(trifluoromethyl)pyrimidin-2-yl)piperazin-1-yl)propoxy)-1-(piperidin-4-yl)ethyl)amino)-4-(trifluoromethyl)pyridazin-3(2H)-one]: the half-maximal inhibitory concentration (IC50) is at least 1 µM.

`C[C@@H](COCCC(=O)N1CCN(c2ccc(C#N)cn2)CC1)Sc1cn[nH]c(=O)c1C(F)(F)F` [Example 655, (S)-6-(4-(3-(2-((6-Oxo-5-(trifluoromethyl)-1,6-dihydropyridazin-4-yl)thio)propoxy)propanoyl)piperazin-1-yl)nicotinonitrile] came in with an IC50 of under 0.1 µM.

`C[C@@H](COCCC(=O)N1CCN(c2ccc(CC#N)cn2)CC1)Oc1cn[nH]c(=O)c1C(F)(F)F` [Example 656, (S)-2-(6-(4-(3-(2-((6-Oxo-5-(trifluoromethyl)-1,6-dihydropyridazin-4-yl)oxy)propoxy)propanoyl)piperazin-1-yl)pyridin-3-yl)acetonitrile]: the IC50 is under 0.1 µM.

The compound `CC[C@@H](COCCC(=O)N1CCN(c2ncc(C(F)(F)F)cn2)CC1)Oc1cn[nH]c(=O)c1Br` [Example 657, (S)-4-Bromo-5-((1-(3-oxo-3-(4-(5-(trifluoromethyl)pyrimidin-2-yl)piperazin-1-yl)propoxy)butan-2-yl)oxy)pyridazin-3(2H)-one] registered an IC50 of under 0.1 µM.

In turn, `C[C@@H](COCCC(=O)N1CCC(c2ccc(C#N)cn2)CC1)Oc1cn[nH]c(=O)c1C(F)(F)F` [Example 658, (S)-6-(1-(3-(2-((6-Oxo-5-(trifluoromethyl)-1,6-dihydropyridazin-4-yl)oxy)propoxy)propanoyl)piperidin-4-yl)nicotinonitrile] showed a half-maximal inhibitory concentration (IC50) of under 0.1 µM.

On to `O=C(CCOC[C@H](CO)Nc1cn[nH]c(=O)c1Br)N1CCN(c2ncc(C(F)(F)F)cn2)CC1` [Example 660, (S)-4-Bromo-5-((1-hydroxy-3-(3-oxo-3-(4-(5-(trifluoromethyl)pyrimidin-2-yl)piperazin-1-yl)propoxy)propan-2-yl)amino)pyridazin-3(2H)-one], for which the concentration for half-maximal inhibition (IC50) was under 0.1 µM.

In the case of `C[C@@H](COCCC(=O)N1CCN(c2cnc(C(F)(F)F)cn2)CC1)Oc1cn[nH]c(=O)c1C(F)(F)F` [Example 662, (S)-5-((1-(3-Oxo-3-(4-(5-(trifluoromethyl)pyrazin-2-yl)piperazin-1-yl)propoxy)propan-2-yl)oxy)-4-(trifluoromethyl)pyridazin-3(2H)-one], the IC50 was under 0.1 µM.

Take `N#Cc1ccc(N2CCN(C(=O)CCOC[C@H](CN3CCOCC3)Oc3cn[nH]c(=O)c3C(F)(F)F)CC2)nc1` [Example 663, (S)-6-(4-(3-(3-Morpholino-2-((6-oxo-5-(trifluoromethyl)-1,6-dihydropyridazin-4-yl)oxy)propoxy)propanoyl)piperazin-1-yl)nicotinonitrile]: the IC50 was under 0.1 µM.

For `C[C@@H](COCCC(=O)N1CCC(c2ncc(C(F)(F)F)cn2)CC1)Nc1cn[nH]c(=O)c1C(F)(F)F` [Example 664, (S)-5-((1-(3-Oxo-3-(4-(5-(trifluoromethyl)pyrimidin-2-yl)piperidin-1-yl)propoxy)propan-2-yl)amino)-4-(trifluoromethyl)pyridazin-3(2H)-one], the half-inhibitory concentration (IC50) was under 0.1 µM.

On to `O=C(CCOC[C@H](CO)Nc1cn[nH]c(=O)c1C(F)(F)F)N1CCN(c2ncc(Cl)cn2)CC1` [Example 665, (S)-5-((1-(3-(4-(5-Chloropyrimidin-2-yl)piperazin-1-yl)-3-oxopropoxy)-3-hydroxypropan-2-yl)amino)-4-(trifluoromethyl)pyridazin-3(2H)-one], for which the IC50 was under 0.1 µM.

The compound `COC[C@@H](COCCC(=O)N1CCN(c2ncc(C(F)(F)F)cn2)CC1)Oc1cn[nH]c(=O)c1Br` [Example 666, (S)-4-Bromo-5-((1-methoxy-3-(3-oxo-3-(4-(5-(trifluoromethyl)pyrimidin-2-yl)piperazin-1-yl)propoxy)propan-2-yl)oxy)pyridazin-3(2H)-one] returned a concentration for half-maximal inhibition (IC50) of under 0.1 µM.

`COC[C@H](COCCC(=O)N1CCN(c2ncc(C(F)(F)F)cn2)CC1)Oc1cn[nH]c(=O)c1Br` [Example 667, (R)-4-Bromo-5-((1-methoxy-3-(3-oxo-3-(4-(5-(trifluoromethyl)pyrimidin-2-yl)piperazin-1-yl)propoxy)propan-2-yl)oxy)pyridazin-3(2H)-one] registered an IC50 of at least 1 µM.

`COC[C@@H](COCCC(=O)N1CCN(c2ncc(C(F)(F)F)cn2)CC1)Nc1cn[nH]c(=O)c1Br` [Example 668, (S)-4-Bromo-5-((1-methoxy-3-(3-oxo-3-(4-(5-(trifluoromethyl)pyrimidin-2-yl)piperazin-1-yl)propoxy)propan-2-yl)amino)pyridazin-3(2H)-one] came in with an IC50 of under 0.1 µM.

Regarding `C[C@@H](COCCC(=O)N1CCCN(c2ncc(C(F)(F)F)cn2)CC1)Nc1cn[nH]c(=O)c1C(F)(F)F` [Example 669, (S)-5-((1-(3-Oxo-3-(4-(5-(trifluoromethyl)pyrimidin-2-yl)-1,4-diazepan-1-yl)propoxy)propan-2-yl)amino)-4-(trifluoromethyl)pyridazin-3(2H)-one], the IC50 is under 0.1 µM.

As for `Cc1cnc(N2CCN(C(=O)CCOC[C@H](C)Nc3cn[nH]c(=O)c3C(F)(F)F)CC2)nc1` [Example 670, (S)-5-((1-(3-(4-(5-Methylpyrimidin-2-yl)piperazin-1-yl)-3-oxopropoxy)propan-2-yl)amino)-4-(trifluoromethyl)pyridazin-3(2H)-one], the IC50 was under 0.1 µM.

The compound `Cc1ccc(N2CCN(C(=O)CCOC[C@H](C)Nc3cn[nH]c(=O)c3C(F)(F)F)CC2)nc1` [Example 671, (S)-5-((1-(3-(4-(5-Methylpyridin-2-yl)piperazin-1-yl)-3-oxopropoxy)propan-2-yl)amino)-4-(trifluoromethyl)pyridazin-3(2H)-one] gave a half-inhibitory concentration (IC50) of under 0.1 µM.

Turning to `C[C@@H](COCCC(=O)N1CCN(c2ccc(CN)cn2)CC1)Oc1cn[nH]c(=O)c1C(F)(F)F` [Example 673, (S)-5-((1-(3-(4-(5-(Aminomethyl)pyridin-2-yl)piperazin-1-yl)-3-oxopropoxy)propan-2-yl)oxy)-4-(trifluoromethyl)pyridazin-3(2H)-one], the concentration for half-maximal inhibition (IC50) was under 0.1 µM.
